One assay has as its system human MeSCs. In words: Co-culture of BrdU-treated human MeSCs with differentiated NSCs, immunocytochemistry for bIII-tubulin and GFAP. Particulars: MeSCs treated with 10 μM BrdU for 5 days; seven days post-coculture. The format is cell-based.
Assay [1] deals with Genomic DNA from human MeSCs. In words: Methylation-sensitive restriction enzyme (HpaII) digestion of genomic DNA from BrdU-treated MeSCs. Particulars: 0, 1 and 10 μM BrdU for 72 hr; dose-dependent.
In assay [2] the test system is human MNSCs. Nature of the assay: Exposure of human MNSC cultures to recombinant reelin. The format is cell-based. From the text:
The cell cluster is composed of undifferentiated cultured cells with migrating and differentiating cells forming the leading outer processes.

For assay [3], the system named is human MNSCs. Nature of the assay: Differentiation of human MNSCs treated with recombinant sAPP, serum-free conditions. The format is cell-based. On the procedure: To investigate whether 22C11-induced inhibition of human MNSC differentiation occurs through the sequestering of sAPP or by blocking the N-terminal domain of APP on the membrane of differentiating cells, human MNSCs were treated with exogenous sAPP. Recombinant human sAPP was produced in yeast, which contains 95% sAPP695T (ending at amino acid 505 of 695) and 5% sAPP695.
The cell population of sAPP-treated human MNSCs at 5 DIV under the serum-free differentiation condition was also characterized by double immunofluorescence labeling of GFAP and bIII tubulin (FIG. 29). Treatment with sAPP dose dependently (25, 50, 100 ng/ml) increased the population of GFAP positive cells from an average of 45% in controls (no sAPP) to an average of 83% using the highest concentration of sAPP (100 ng/ml at 5 DIV).

“Also recorded” adds a separate entry of the source.

The values that follow come from US7635467B2, “Mammalian multipotent stem cells and compositions, methods of preparation and methods of administration thereof” (The Board of Trustees of the University of Illinois, priority 2002, dated 2009).

Turning to `O=c1[nH]c(=O)n([C@H]2C[C@H](O)[C@@H](CO)O2)cc1Br` [BrdU, 5-bromo-2-deoxyuridine], in the assay on human MeSCs, the “GFAP-immunopositive large flattened multipolar cells, of total cells” value is “approximately 60%”; the “bIII-tubulin immunopositive small bipolar and unipolar cells, of total cells” value is “approximately 40%”. Besides, the “HpaII digestion of genomic DNA (size of DNA fragments)” value in assay [1] is given as “prevented enzyme digestion; also recorded: prevents methylation-sensitive restriction enzyme digestion of DNA”.

In the case of “recombinant reelin: large extracellular matrix (ECM) protein of approximately 400 kDa”, the “mobility of cells in the cluster” value in the assay with human MNSCs [2] (addition of recombinant reelin to NSCs in culture) was “increased mobility of cells”. The “behaviour of processes of differentiating human MNSC cultures” value in the assay on human MNSCs [2] (exposure to recombinant reelin) is given as “immediately retract their processes back to the cell cluster”.

With “sAPP: Recombinant human sAPP produced in yeast, contains 95% sAPP695T (ending at amino acid 505 of 695) and 5% sAPP695”, in the assay on human MNSCs [3] (100 ng/ml at 5 DIV, serum-free, 45% in controls), the “population of GFAP positive cells” value is on record as 83%. For the same molecule, the “bIII-tubulin-positive neurons in total population of differentiated human MNSCs” value in the assay on human MNSCs [3] (highest concentration of sAPP, 5 DIV, serum-free, 51% in controls) was found to be 13%. Moreover, in the assay with human MNSCs [3] (low doses of sAPP (e.g., 25 ng/ml), 5 DIV, serum-free), the “differentiation pattern (GFAP / bIII-tubulin staining) compared to control” value is “increased glial (red) and neuronal (green) differentiation”. Moreover, the “TUNEL signal in human MNSCs” value in the assay on human MNSCs [3] (sAPP treatment) is reported as “did not increase the TUNEL signal”. For the same molecule, the “differentiation of human MNSCs” value in the assay on human MNSCs [3] (serum-free differentiation conditions, 25, 50 and 100 ng/ml, 5 days, dose-dependent) is listed as “differentiated human MNSCs; also recorded: increased the differentiation”.
